Common to all, as to format: cell-based
Data set [1] addresses T1, Proprotein convertase subtilisin/kexin type 9 (Homo sapiens, UniProt Q8NBP7). In words: Inhibition of human PCSK9 in HepG2 cells incubated for 48 hrs by AlphaLISA assay.
Data set [2] concerns HepG2. The data set is described as follows: Cytotoxicity against human HepG2 cells incubated for 24 hrs by MTT assay. The conditions noted are these: hepg2, 24 h. On the technique in general: Tetrazolium dyes change colour on reduction, which living cells bring about.
The subject of data set [3] is HepG2. In words: Cytotoxicity against human HepG2 cells at <50 uM incubated for 24 hrs by MTT assay. The conditions noted are these: hepg2, 24 h.
Data set [4] deals with T1, Proprotein convertase subtilisin/kexin type 9. In words: Inhibition of human PCSK9 in HepG2 cells incubated for 24 hrs followed by medium replenishment and measured after 24 hrs by ELISA.

This is an account of results in ChEMBL document CHEMBL4433247, “Discovery of 2,3'-diindolylmethanes as a novel class of PCSK9 modulators” (Bioorg Med Chem Lett, 2019).

T1 sequence (Q8NBP7 31-152 limits assumed): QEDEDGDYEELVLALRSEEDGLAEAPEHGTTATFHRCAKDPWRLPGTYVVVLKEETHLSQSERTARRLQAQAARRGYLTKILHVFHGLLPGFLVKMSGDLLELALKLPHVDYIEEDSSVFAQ
T1 sequence (Q8NBP7 153-692 limits assumed): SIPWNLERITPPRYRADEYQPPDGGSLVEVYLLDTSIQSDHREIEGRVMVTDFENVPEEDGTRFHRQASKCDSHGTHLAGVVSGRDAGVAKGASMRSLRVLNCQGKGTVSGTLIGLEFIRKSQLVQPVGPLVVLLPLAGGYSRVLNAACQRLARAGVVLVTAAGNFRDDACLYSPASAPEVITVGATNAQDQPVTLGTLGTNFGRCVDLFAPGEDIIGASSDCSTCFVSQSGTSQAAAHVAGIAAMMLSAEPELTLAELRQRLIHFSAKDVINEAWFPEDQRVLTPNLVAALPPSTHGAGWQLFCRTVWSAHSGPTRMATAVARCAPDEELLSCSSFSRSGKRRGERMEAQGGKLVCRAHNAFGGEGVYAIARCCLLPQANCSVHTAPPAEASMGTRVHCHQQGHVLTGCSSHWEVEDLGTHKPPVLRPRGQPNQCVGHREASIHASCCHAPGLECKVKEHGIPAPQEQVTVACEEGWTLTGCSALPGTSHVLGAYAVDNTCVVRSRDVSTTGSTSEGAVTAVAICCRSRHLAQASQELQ

By IC50 is commonly meant the point on the concentration scale where inhibition reaches its midpoint. In the case of `Cc1ccc(S(=O)(=O)n2c(Cc3cn(C)c4ccccc34)c(-c3ccccc3)c3ccccc32)cc1`, the IC50 in data set [1] (read-out: IC50) came to 2300 nM. Moreover, the Activity in data set [2] amounted to 48 µM. Taken in the same sequence, the figures for `Clc1ccc2[nH]cc(Cc3cc4ccccc4[nH]3)c2c1` were 10000 nM and over 50 µM. Turning to `Brc1ccc2[nH]cc(Cc3cc4ccccc4[nH]3)c2c1`, in data set [1] (hepg2), the half-maximal inhibitory concentration (IC50) result is recorded as “Not Active”. Take `Cc1ccc(S(=O)(=O)n2c(Cc3cn(C)c4ccccc34)c(C(C)C)c3ccccc32)cc1`: the concentration for half-maximal inhibition (IC50) in data set [1] (read-out: IC50) amounted to 1100 nM. The Activity in data set [2] was over 50 µM. For `Cc1cccc2c(Cc3cc4ccccc4[nH]3)c[nH]c12`, in data set [1] (read-out: IC50), the half-maximal inhibitory concentration (IC50) was 900 nM. Besides, in data set [2], the Activity is over 50 µM. `Fc1cccc2c(Cc3cc4ccccc4[nH]3)c[nH]c12`: the IC50 in data set [1] (read-out: IC50) was found to be 300 nM. Besides, the Activity in data set [2] turned out to be 38 µM. On to `Fc1ccc2[nH]c(Cc3c[nH]c4c(F)cccc34)cc2c1`, for which, in data set [3], the Activity result is given as “Non-Toxic”. The IC50 in data set [4] worked out at 202 nM. As for `Cc1ccc2c(Cc3cc4ccccc4[nH]3)c[nH]c2c1`, the IC50 in data set [1] (read-out: IC50) came out at 1400 nM. The Activity in data set [2] came out at 45 µM. As for `Fc1ccc2[nH]c(Cc3c[nH]c4c(Cl)cccc34)cc2c1`, in data set [1] (read-out: IC50), the IC50 was 250 nM. Moreover, the Activity in data set [2] is over 50 µM.

For `Clc1cccc2c(Cc3cc4ccccc4[nH]3)c[nH]c12`, the IC50 in data set [1] (read-out: IC50) was 2800 nM. Further, the Activity in data set [2] is over 50 µM. In the case of `Cc1ccc(S(=O)(=O)n2c(Cc3c[nH]c4c(Cl)cccc34)c(C)c3ccccc32)cc1`, the IC50 in data set [1] (read-out: IC50) stood at 2300 nM. In addition, the Activity in data set [2] is over 50 µM.

On to `Cc1ccc(S(=O)(=O)n2c(Cc3cn(C)c4ccccc34)c(C)c3ccccc32)cc1`, for which the concentration for half-maximal inhibition (IC50) in data set [1] (read-out: IC50) was determined as 1500 nM. This compound returned an Activity in data set [2] of 45 µM. The like results for `Cc1ccc2[nH]cc(Cc3cc4ccccc4[nH]3)c2c1` were, in that order, 5600 nM and over 50 µM.
